US20200375963A1 (priority 2017, published 2020)

What was measured:
Assay type in all cases: cell-based, human
[1] = test system: A3A-mediated RNA editing (SDHB c.136 C>U) in monocyte-enriched PBMCs (MEPs); assay: SDHB c.136 C>U RNA editing in monocyte-enriched PBMCs (allele specific RT-qPCR)
Experimental: (§1) Leukoreduction filters (Terumo BCT, Lakewood, Colo.), waste products of platelet donation process, were used to isolate PBMCs by an IRB-approved protocol. PBMCs were isolated using Histopaque-1077 (Sigma). Monocyte-enriched PBMCs (MEPs) were prepared using cold-aggregation method with slight modifications (30,60) Monocytes were isolated from MEPs or PBMCs using EasySep Human CD14 Positive Selection Kit (STEMCELL Technologies). Flow cytometric verification of isolated CD14+ cells were performed using RPCI core facility services. The MEPs were cultured at an average density of 25-35×10^6/ml in 1 or 2 ml per well in 6- or 12-well standard tissue culture plates under standard conditions (37° C./5% CO2) in RPMI-1640 medium with 10% FBS, 100 U/ml penicillin and […] streptomycin (Mediatech). Isolated CD14+ and CD14− cells were cultured at approximately 5×10^6 cell/ml and 7×10^6 cells per ml densities, respectively. THP-1 and TLA-HEK293T cell lines were purchased from ATCC, and Open Biosystems®, respectively, and cultured in recommended conditions. THP-1 cells were cultured in 10^6 cells per 100 μl in 96-well culture plates in ATCC-formulated-1640 medium (30-2001), whereas 293T cells were cultured in DMEM medium supplemented with 10% FBS.
(§2) Cells were cultured under 1% or 6% O2, 5% CO2 and 94% N2 at 37° C. using Xvivo System (Biospherix). Human ‘universal’ type I IFN was obtained from PBL Assay Science and used at 600 U/ml. Atpenin A5 (Cayman chemical #11898), myxothiazol (Sigma-Aldrich, #T5580) and 2-Thenoyltrifluoroacetone (TTFA) (Sigma-Aldrich, #T27006) were used at 1-2 μM and 400 μM final concentrations, respectively. DFO (Sigma-Aldrich #D9533) and DMOG (Sigma-Aldrich #D3695) were used in 0.5 mM and 1.0 mM final concentrations, respectively.
(§3) RNA and plasmid DNA were isolated with commercial kits (TRIzol, Life Technologies and Qiagen, respectively). RNA/DNA was quantified by Nanodrop 2000 (Thermo Fisher). Proteins were quantified using Bio-Rad Dc assay with BSA standards. RNA was reverse transcribed with the Transcriptor First Strand cDNA Synthesis (Roche) kit. SDHB c.136C>U RNA editing was quantified by allele specific RT-qPCR PCR oligonucleotide primers (FIG. 13) were obtained from Integrated DNA Technologies, Inc. ADM, ELL2, HILPDA, NGLY1, MET, TKTL1, VEGFA and B2M gene expression levels was assessed by qPCR using FastStart Taq DNA polymerase and SYBR Green I dye on a LightCycler 480 System (Roche). Quantification cycle values were calculated by the instrument software using the maximum second derivative method and the mean quantification cycle value of duplicate PCR reactions was used for analysis. Delta delta CT method is used to infer gene expression changes.

[2] = test system: HIF-1α; assay: HIF-1α immunoblot of HEK293T cells
Experimental: as §1, §2
(§4) 2× Laemmeli buffer (BIO-RAD) was used to prepare whole cell lysates. The lysate resuspended in the Laemmeli buffer was heated at 95° C. for 15 minutes, and 40 μl of the sample was used to perform gel electrophoresis on pre-cast, 4%-15% gradient polyacrylamide gels (Mini-PROTEAN TGX, Bio-Rad) in Laemmeli buffer system. Mouse monoclonal anti-HIF1α (product number GTX628480, GT10211; 1:1000 dilution) and mouse monoclonal anti-β-actin (product number AM4302, AC-15; 1:15,000 dilution) was used to detect HIF-1α or actin, respectively followed by incubation with HRP-conjugated goat anti-mouse antibodies (Life Technologies) at 1:2000 dilution.

[3] = test system: hypoxia-related gene expression in CD14+ monocytes; assay: Gene expression in CD14+ monocytes (RNA seq, RT-qPCR); conditions: for mRNA expression of VEGFA and HILPDA: isolated CD14+ monocytes, normoxia, 1 day, n=3 donors
[4] = test system: hypoxia-regulated genes (HILPDA, VEGFA) in THP-1 cells; assay: RT-qPCR of hypoxia-regulated genes in THP-1 cells; conditions: THP-1, normoxia or hypoxia (1%), 24 hours, HILPDA and VEGFA
Experimental: (§5) Leukoreduction filters (Terumo BCT, Lakewood, Colo.), waste products of platelet donation process, were used to isolate PBMCs by an IRB-approved protocol. PBMCs were isolated using Histopaque-1077 (Sigma). Monocyte-enriched PBMCs (MEPs) were prepared using cold-aggregation method with slight modifications (30,60) Monocytes were isolated from MEPs or PBMCs using EasySep Human CD14 Positive Selection Kit (STEMCELL Technologies). Flow cytometric verification of isolated CD14+ cells were performed using RPCI core facility services. […]
as §3, with “RNA was reverse transcribed with the Transcriptor First Strand cDNA Synthesis (Roche) kit.” left out, “Delta delta CT method is used to infer gene expression changes.” left out

[5] = test system: SDHB c.136C>U RNA editing in CD14+ monocytes; assay: SDHB c.136C>U RNA editing in CD14+ monocytes isolated after culture of MEPs; conditions: CD14+ cells, AtA5/normoxia 2 days, n=3 donors; normoxic controls 5.4%±1.7%
Text: We examined whether MTCII also regulates induction of gene expression in primary monocytes under hypoxia or when inactivated, as observed in SDH-mutated paragangliomas. To test the impact of MTCII inhibition on monocyte gene expression, we cultured MEPs (n=3 donors) in normoxia (1 day), hypoxia (1 day) and AtA5/normoxia (2 days), isolated CD14+ monocytes and performed RNA seq analysis. […] HIF1A but not EPAS1 (HIF2A) or HIF3A is expressed robustly (RPKM averages 21.5, 0.17 and 0.01, respectively) in monocytes. […]
as §3, with “RNA was reverse transcribed with the Transcriptor First Strand cDNA Synthesis (Roche) kit.” left out, “Delta delta CT method is used to infer gene expression changes.” left out

[6] = test system: monocyte-enriched PBMCs (MEPs); assay: Oxygen consumption in MEPs (MitoXpress-Xtra phosphorescent oxygen probe); conditions: approximately 3 hours, n=3 donors
Experimental: (§6) We first measured oxygen consumption and L-lactate levels to confirm the effect of AtA5 and MXT on mitochondrial respiration in MEPs. We used a phosphorescent oxygen probe (MitoXpress-Xtra) which is quenched by oxygen. Cellular respiration in a closed system depletes oxygen and increases the fluorescence. […] Normoxic induction of RNA editing by MXT is also confirmed in a separate experiment from three additional donors (FIG. 11).
(§7) Oxygen consumption was measured using phosphorescent oxygen probe, MitoXpress-Xtra (Cayman Dual Assay Kit, item no. 601060). Monocytes were enriched to >50% purity by short-term cold aggregation and first cultured in standard conditions for 24 hours without treatment to stimulate metabolic activity. Cells were then centrifuged at 200×g for 7 minutes and resuspended in 1 ml RPMI/1% FBS with or without mitochondrial inhibitors. Cells are covered by mineral oil after addition of MitoXpress-Xtra following manufacturer's protocol. The fluorescence was kinetically measured on a plate reader (Synergy H1) at 20 sec intervals for approximately 3 hours (delay 70 μsec, collection time 30 μsec). Supernatants of the oxygen consumption assay were used to measure L-lactate levels following manufacturer's instructions.

[7] = test system: HIF-1α; assay: HIF-1α immunoblot of CD14+ and CD14− primary cells
Experimental: as §1, §2, §4

[8] = test system: monocyte-enriched PBMCs (MEPs); assay: L-Lactate levels in extra-cellular media of MEPs; conditions: supernatants of the oxygen consumption assay
Experimental: as §6, §7

[9] = test system: hypoxia-response elements (HRE) from PGK1, a HIF-1α target gene; assay: HRE-luciferase reporter in HEK293T cells; conditions: 293T
Experimental: It is possible that HIF-1α may have degraded depending on cell type, time of analysis (24 h) or another factor. Therefore, we further examined the effect of AtA5 in HEK293T embryonic kidney cell line and THP-1 monocytic leukemia cell line over a 24 hour period. Several studies in cell lines have reported normoxic stabilization of HIF-1α upon knocking down MTCII (Selak et al., (2005), Cancer. Cell, 7, 77-85, Guzy et al., (2008), Mol. Cell. Biol., 28, 718-731, Cervera et al., (2008), Cancer Res., 68, 4058-4067). […] Since AtA5 appeared to suppress HIF-1α in mild hypoxia, we exposed the cells to both 6% and 1% O2. […] To confirm the suppression of HIF-regulated gene expression, we used a plasmid construct expressing firefly luciferase under the control of three hypoxia-response elements […] from PGK1, a HIF-1α target gene.
HEK293T cells were cotransfected with the 400 ng of HRE-luciferase (Addgene, plasmid #26731), 1 ng of pRL-SV40 plasmid, 600 ng of pcDNA 3.1(+) (control empty vector) per well at ˜50-60% confluency using jetPRIME (Polyplus-transfection) in 12-well culture plates as per the manufacturer's instructions. Transfection efficiency was 60%-80% as assessed by fluorescent microscopy of cells co-transfected with the pLemiR plasmid DNA (Open Biosystems) for expression of a red fluorescent protein. Cells were harvested 2 days after transfection for measurement of their HRE and Renilla luciferase activities using Dual-Luciferase Reporter Assay System (Promega). HRE expression was quantified as a ratio of HRE/Renilla luciferase activities.

[10] = test system: hypoxia-regulated genes (ELL2, VEGFA) in 293T cells; assay: RT-qPCR of hypoxia-regulated genes in 293T cells; conditions: normoxia and hypoxia (1% O2), 24 hours
Experimental: as §5
as §3, with “RNA was reverse transcribed with the Transcriptor First Strand cDNA Synthesis (Roche) kit.” left out, “Delta delta CT method is used to infer gene expression changes.” left out

[11] = test system: HIF-1α; assay: HIF-1α immunoblot of THP-1 cells
Experimental: as §1
Cells were cultured under 1% or 6% O2, 5% CO2 and 94% N2 at 37° C. using Xvivo System (Biospherix). […]

[12] = HEK293T, normoxia, 24 hours, DMOG 1 mM, DFO 0.5 mM, AtA5 1 μM
[13] = hypoxia (1% O2), monocytes isolated from PBMCs then cultured 24 hours, three donors
[14] = normoxia, monocytes isolated from PBMCs then cultured 24 hours
[15] = inhibitor jointly with hypoxia (1% O2), compared to hypoxia alone

SMILES | SDHB c.136 C>U RNA editing ([1]; normoxia, 1-3 days) | stabilization of HIF-1α [2, 12] | stabilization of HIF-1α ([2]; 293T, 1% O2, 24 hours) | stabilization of HIF-1α ([2]; 293T, 6% O2, 24 hours) | mRNA expression of VEGFA and HILPDA [3] | expression of hypoxia-regulated genes [4] | oxygen consumption [6] | HIF-1α stabilization (western blot) [7, 13] | HIF-1α stabilization (western blot) [7, 14] | L-Lactate levels [8] | SDHB c.136 C>U RNA editing [1, 15] | HRE-driven expression (ratio of HRE/Renilla luciferase activities) ([9]; 6% O2, 24 hours) | expression of hypoxia-regulated genes [10] | further results
O=C(CC(=O)C(F)(F)F)c1cccs1 [TTFA, 2-Thenoyltrifluoroacetone] | also induced RNA editing in normoxia | – | – | – | – | – | – | – | – | – | – | – | – | –
CC(=O)N(O)CCCCCNC(=O)CCC(=O)N(O)CCCCCNC(=O)CCC(=O)N(O)CCCCCN.CS(=O)(=O)O [DFO] | – | stabilized HIF-1α in normoxia | – | – | – | – | – | – | – | – | – | – | – | –
COc1[nH]c(O)c(C(=O)[C@@H](C)C[C@H](C)[C@@H](Cl)CCl)c(=O)c1OC [AtA5, 3-((2S,4S,5R)-5,6-dichloro-2,4-dimethylhexanoyl)-2-hydroxy-5,6-dimethoxypyridin-4(1H)-one] | induced SDHB c.C136U RNA editing | not AtA5 stabilized HIF-1α | only at 6% O2 | inhibited stabilization of HIF-1α only at 6% O2 | statistically significantly increased | suppressed | reduced but did not abolish it | appeared to enhance the stabilization of HIF-1α in hypoxic monocytes in two of three donors | did not robustly stabilize HIF-1α | increased relative to the degree of respiratory inhibition | did not further increase RNA editing levels | statistically significantly suppressed | suppressed | weak HIF-1α expression in normoxia ([2]; HEK293T, normoxia, 24 hours, AtA5 1 μM): suppressed the weak HIF-1α expression in normoxia; expression of selected genes (ADM, ELL2, HILPDA, NGLY1, MET, TKTL1 and VEGFA), RT-qPCR ([3]; CD14+ cells, AtA5/normoxia day 2): induction of selected highly-expressed genes; transcriptional upregulation of A3A ([3]; CD14+ cells, AtA5/normoxia, RNA seq): without transcriptional upregulation of A3A; RNA editing in genes other than SDHB ([3]; CD14+ cells, RNA seq analysis): induction of RNA editing in genes other than SDHB; SDHB c.136C>U RNA editing (mean±SEM) [5]: 32.1%±14.9%; SDHB c.136 C>U RNA editing, AtA5 together with IFN1 ([1]; hypoxia with IFN1): no additional effect; SDHB c.136 C>U RNA editing, AtA5 together with IFN1 ([1]; normoxia, IFN1 600 U/ml): additive; stabilization of HIF-1α ([11]; THP-1, normoxia, 24 hours): antagonized weak normoxic stabilization of HIF-1α
COC(=O)CNC(=O)C(=O)OC [DMOG] | – | stabilized HIF-1α in normoxia | – | – | – | – | – | – | – | – | – | – | – | HIF-1α stabilization (western blot) ([7]; normoxia, CD14+ and CD14− cells isolated after culture of MEPs for 1 or 2 days): caused robust normoxic stabilization of HIF-1α
CO/C(=C/C(N)=O)[C@H](C)[C@H](/C=C/c1csc(-c2csc([C@@H](C)/C=C/C=C/C(C)C)n2)n1)OC [MXT, myxothiazol] | induced SDHB mRNA editing in normoxia | – | inhibited it both at 6% O2 and 1% O2 | inhibited it both at 6% O2 and 1% O2 | statistically significantly increased | suppressed | completely suppressed oxygen consumption | appeared to enhance the stabilization of HIF-1α in hypoxic monocytes in two of three donors | did not robustly stabilize HIF-1α | increased relative to the degree of respiratory inhibition | no statistically significant effect | inhibited HRE-driven expression | suppressed | SDHB c.136 C>U RNA editing ([1]; mild hypoxia (6% O2)): increased the editing level; HRE-driven expression (ratio of HRE/Renilla luciferase activities) ([9]; 1% O2, 24 hours): inhibited HRE-driven expression; stabilization of HIF-1α ([11]; THP-1, hypoxia 1% O2, 24 hours): inhibited it even at 1% O2
